Results reported in ChEMBL document CHEMBL5537135, “Novel antimicrobial peptides modified with fluorinated sulfono-γ-AA having high stability and targeting multidrug-resistant bacteria infections” (Eur J Med Chem, 2024).
Active and inactive are the calls of the source. The calls are words filed in the database; no cut-off is given here. Numbered stars: 1 amine (or outer) side, 2 acyl side, 3 side chain; on linkers, the order of the positions; unused ones are H or OH. Square brackets hold non-standard residues; d marks the D form. Peptide text beside a SMILES is read from it. * marks the point of attachment. X3 = CC(C)C[C@@H](CN(CC(N)=O)S(=O)(=O)c1ccc(C(F)(F)F)cc1)N*; X2 = CC(C)C[C@H](N)CN(CC(=O)[*:2])[*:1]; X1 = O=S(=O)(c1ccc(C(F)(F)F)cc1)*

Experiments:
[1] = tested on: Cell membrane; experiment: Induction of membrane disruption in Pseudomonas aeruginosa ATCC 27853 assessed as membrane lysis at 2 to 4 times MIC incubated for 24 hrs by SEM analysis; type: cell membranes
[2] = Toxicity in mouse assessed as kidney lesion at 20 mg/kg, ip measured for 30 to 60 mins by H and E staining based analysis; type: organism-based; settings: in vivo, time 30-60 min
[3] = tested on: Staphylococcus aureus; experiment: Antibacterial activity against methicillin-resistant Staphylococcus aureus ATCC 33591 infected in full-thickness wound BALB/c mouse model assessed as reduction in inflammatory infiltration at 1 mg/kg, ip administered for 1 to 48 hrs and measured after 3 days; type: functional, organism-based; settings: time 1-120 hrs
[4] = Toxicity in mouse assessed as liver lesion at 20 mg/kg, ip measured for 30 to 60 mins by H and E staining based analysis; type: organism-based; settings: in vivo, time 30-60 min
[5] = tested on: Staphylococcus aureus; experiment: Antibacterial activity against methicillin-resistant Staphylococcus aureus ATCC 33591 infected in full-thickness wound BALB/c mouse model assessed as reduction in TNF-alpha level in skin at 0.25 to 1 mg/kg, ip administered for 1 to 48 hrs and measured after 3 days; type: functional, organism-based; settings: dose 0.25-1 mg/kg, time 1-120 hrs
[6] = tested on: Pseudomonas aeruginosa; experiment: Antibacterial activity against Pseudomonas aeruginosa ATCC 27853 infected in C57BL/6 mouse pneumonia model assessed as decrease in IL-1beta level in lung at 2.5 to 10 mg/kg, ip administered for 1 to 48 hrs and measured after 3 days; type: functional, organism-based; settings: dose 2.5-10 mg/kg, time 1-120 hrs
[7] = tested on: Pseudomonas aeruginosa; experiment: Antibacterial activity against Pseudomonas aeruginosa ATCC 27853 infected in C57BL/6 mouse pneumonia model assessed as decrease in IL-6 level in lung at 2.5 to 10 mg/kg, ip administered for 1 to 48 hrs and measured after 3 days; type: functional, organism-based; settings: dose 2.5-10 mg/kg, time 1-120 hrs
[8] = Toxicity in mouse assessed as skin injury at 40 mg/kg, sc measured for 5 to 1440 mins by H and E staining analysis; type: organism-based; settings: in vivo, time 5-1440 min
[9] = tested on: Pseudomonas aeruginosa; experiment: Antibacterial activity against Pseudomonas aeruginosa ATCC 27853 infected in C57BL/6 mouse pneumonia model assessed as decrease in TNF-alpha level in lung at 2.5 to 10 mg/kg, ip administered for 1 to 48 hrs and measured after 3 days; type: functional, organism-based; settings: dose 2.5-10 mg/kg, time 1-120 hrs
[10] = tested on: Cell membrane; experiment: Induction of membrane disruption in Staphylococcus aureus ATCC 33591 assessed as membrane lysis at 2 to 4 times MIC incubated for 24 hrs by SEM analysis; type: cell membranes
[11] = tested on: Staphylococcus aureus; experiment: Antibacterial activity against methicillin-resistant Staphylococcus aureus ATCC 33591 infected in full-thickness wound BALB/c mouse model assessed as wound healing at 0.25 to 1 mg/kg, ip administered for 1 to 48 hrs and measured after 10 days; type: functional, organism-based; settings: dose 0.25-1 mg/kg, time 1-288 hrs
[12] = Toxicity in mouse assessed as lung lesion at 20 mg/kg, ip measured for 30 to 60 mins by H and E staining based analysis; type: organism-based; settings: in vivo, time 30-60 min
[13] = tested on: Staphylococcus aureus; experiment: Antibacterial activity against methicillin-resistant Staphylococcus aureus ATCC 33591 infected in full-thickness wound BALB/c mouse model at 0.25 to 1 mg/kg, ip administered for 1 to 48 hrs and measured after 3 days; type: functional, organism-based; settings: dose 0.25-1 mg/kg, time 1-120 hrs
[14] = tested on: Staphylococcus aureus; experiment: Additive antibacterial activity against Staphylococcus aureus ATCC 33591 assessed as fractional inhibitory concentration index in presence of polymyxin B by checkerboard assay; type: functional
[15] = tested on: Cell membrane; experiment: Induction of membrane depolarization in Pseudomonas aeruginosa ATCC 27853 assessed as increase in fluorescence intensity by DiSC35 dye-based fluorescence assay; type: cell membranes
[16] = tested on: Pseudomonas aeruginosa; experiment: Antibacterial activity against Pseudomonas aeruginosa ATCC 27853 infected in C57BL/6 mouse pneumonia model assessed as reduction in bacterial load in lung at 10 mg/kg, ip administered for 1 to 48 hrs and measured after 3 days; type: functional, organism-based; settings: time 1-120 hrs
[17] = tested on: Staphylococcus aureus; experiment: Antibacterial activity against […] Staphylococcus aureus ATCC 33591; type: functional, organism-based
[18] = tested on: Staphylococcus aureus; experiment: Synergistic antibacterial activity against methicillin-resistant Staphylococcus aureus S5 assessed as fractional inhibitory concentration index in presence of polymyxin B by checkerboard assay; type: functional
[19] = tested on: Pseudomonas aeruginosa; experiment: Synergistic antibacterial activity against multidrug-resistant Pseudomonas aeruginosa 124 assessed as fractional inhibitory concentration index in presence of polymyxin B by checkerboard assay; type: functional
[20] = tested on: Pseudomonas aeruginosa; experiment: Synergistic antibacterial activity against multidrug-resistant Pseudomonas aeruginosa 124 assessed as fractional inhibitory concentration index in presence of ceftazidime by checkerboard assay; type: functional
[21] = tested on: Cell membrane; experiment: Induction of cytoplasmic membrane depolarization in methicillin-resistant Staphylococcus aureus ATCC 33591 assessed as increase in fluorescence intensity at 2 times MIC by DiSC35 dye-based fluorescence assay

CC(C)C[C@H](N)CN(CC(=O)N[C@@H](CCCCN)C(=O)N[C@@H](CC(C)C)C(=O)N[C@@H](CC(C)C)C(=O)N[C@@H](CCCCN)C(=O)N[C@@H](CCCCN)C(=O)N[C@@H](CC(C)C)C(=O)N[C@@H](CC(C)C)C(N)=O)S(=O)(=O)c1ccc(C(F)(F)F)cc1 (X1-[X2]KLLKKLL-NH2)
Activity [1]: Active | Activity [2]: Non-Toxic | Activity [3]: Active | Activity [4]: Non-Toxic | Activity [5]: Active | Activity [6]: Active | Activity [7]: Active | Activity [8]: Non-Toxic | Activity [9]: Active | Activity [10]: Active | Activity [11]: Active | Activity [12]: Non-Toxic | Activity [13]: Active | fractional inhibitory concentration index (FICI) [14]: 1 | Activity [15]: Dose-Dependent Effect | Activity [16]: Active | Activity [17]: Active

CC(C)C[C@@H](CN(CC(N)=O)S(=O)(=O)c1ccc(C(F)(F)F)cc1)NC(=O)[C@H](CCCCN)NC(=O)[C@H](CCCCN)NC(=O)[C@H](CC(C)C)NC(=O)[C@H](CC(C)C)NC(=O)[C@H](CCCCN)NC(=O)[C@H](CC(C)C)NC(=O)[C@@H](N)Cc1ccccc1 (H-FLKLLKK-X3)
fractional inhibitory concentration index (FICI) [18]: 0.75 | fractional inhibitory concentration index (FICI) [19]: 0.75 | fractional inhibitory concentration index (FICI) [20]: 0.75 | Activity [21]: Active
